“And” between values parts separate entries of the source, which are not always exact repeats. Equal entries are not always repeated.
Tests used:
hSirt4 [1] = biological target: T1, hSirt4 (Homo sapiens, UniProt Q9Y6E7); test: HMG-FdL (Fluor-de-Lys-like) de-HMG-ylation assay; type: biochemical; conditions: HMG-FdL assay, 1 µM hSirt4, 500 µM HMG-FdL substrate, 500 μM NAD+, 37 °C, 20 min; fluorescence; n = 2; NADH corrected through spiking controls
T1 construct: hSirt4(25–314) in pQE30 coding for an N-terminal His6-tag; His6 (N); made in house; host or cells: Escherichia coli CodonPlus(DE3)
T1 sequence (Q9Y6E7 25-314): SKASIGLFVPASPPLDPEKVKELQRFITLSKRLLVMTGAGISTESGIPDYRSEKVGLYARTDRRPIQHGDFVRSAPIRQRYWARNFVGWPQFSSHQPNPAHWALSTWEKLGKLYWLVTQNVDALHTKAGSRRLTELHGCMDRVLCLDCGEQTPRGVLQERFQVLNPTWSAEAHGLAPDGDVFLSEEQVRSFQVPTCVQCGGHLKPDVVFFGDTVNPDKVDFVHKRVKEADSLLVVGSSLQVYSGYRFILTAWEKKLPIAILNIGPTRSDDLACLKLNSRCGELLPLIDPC
Description: As a convenient and complementary, fluorescence-based alternative to the coupled enzymatic assay with HMG-peptides, we established substrate and assay corresponding to the popular “Fluor-de-Lys” (FdL) deacylation assays. […] We then employed the FdL-like Sirt4 assay for studying the effects of NAM and NADH, which are not compatible with the coupled assay. […] After 20 min, developer solution (2 mM NAM and 10 mg mL^−1 trypsin) in assay buffer was added 1:1 and samples were incubated for 45 min at room temperature. Fluorescence was measures using a FluoDia T70 with excitation wavelength 365 nm and emission wavelength 465 nm.

Sirt4 = biological target: T2, Sirt4 (Homo sapiens, UniProt Q9Y6E7); test: MS-based Sirt4 inhibition assay with HMG-CPS1 substrate; type: biochemical; conditions: n = 2 (Supplementary Fig. 4b)
T2 construct: hSirt4(25–314) in pQE30 coding for an N-terminal His6-tag; His6 (N); made in house; host or cells: Escherichia coli CodonPlus(DE3)
T2 sequence (Q9Y6E7 25-314): T1 sequence (Q9Y6E7 25-314)
Description: For MS and UV analyzes of deacylation reactions, samples were prepared as described for the coupled continuous assay, stopped by mixing 1:1 with 0.5% TFA after 0 and 60 min, diluted to 20 µM peptide using 0.1% FA, and analyzed by HPLC-separation using a Shimadzu Prominence UFLC (Shimadzu, Duisburg, Germany) coupled to ESI-MS and UV detection. Samples were washed on a Piccolo Proto 200 C4 5 μm 2.5 × 0.5 mm trap column (Higgins Analytical, Mountain View, California) and subsequently subjected to a Jupiter C4 5 μm 300 Å 150 × 1 mm analytical column (Phenomenex, Torrance, California) for reversed phase separation, with 99.9% H2O, 0.1% TFA as buffer A and 99.9% ACN, 0.1% TFA as buffer B. Peptides were eluted over a 20 min gradient from 1 to 55% buffer B, followed by 1 min from 55 to 90% buffer B with 70 µL min^−1 flow-rate. UV-detection was done using a Shimadzu SPD-20A detector at 280 nm. MS analysis was performed by ESI-TOF-MS on an AB Sciex TripleTOF 5600+ mass spectrometer (Sciex, Darmstadt, Germany) with a DuoSpray Ion Source using the following settings: floating voltage of 5500 V and declustering potential of 100 with one TOF experiment summing over four time bins. We detected in a mass range from 300 to 2500 m/z. […]

other sirtuins = conditions: cited from earlier work
xSirt4 Delta 198–203 = test: Coupled continuous assay, xSirt4 variant; type: biochemical, Xenopus tropicalis; conditions: Sirt4 loop deletion variant (198-203), HMG-CPS1 peptide substrate; n = 2
Description: For xSirt4(32–315) and zSirt4(29–310) eluted from the NiNTA material, the buffer was changed to 50 mM Tris/HCl pH 7.5, 200 mM NaCl, (supplemented with 20% glycerol for xSirt4) in a HiPrep Desalting column and subjected to Senp2-proteolysis for 30 min on ice. The protein was loaded on a HisTrap HP 1 mL column (GE Healthcare) and eluted with 50 mM Tris/HCl pH 7.5, 200 mM NaCl, 30–50 mM imidazole. It was subsequently subjected to gel filtration on a Superdex 75 10/300 GL (xSirt4) or Superdex 200 10/300 GL (zSirt4) column (both GE Healthcare) in 25 mM Tris/HCl pH 7.5, 150 mM NaCl (+20 % glycerol for xSirt4), concentrated in a Microsep concentrator, flash-frozen in liquid nitrogen, and stored at −80 °C. xSirt4 single-site variants were generated using the QuickChange protocol (see Supplementary Table 1 for primer sequences) and verified by DNA sequencing, and the proteins were produced as described for wild-type xSirt4.
(§1) The coupled continuous assay was performed as reported. […] Reactions were monitored in microplates at room temperature for 1 h through absorption measurements at 340 nm in a LAMBDAScan plate reader (MWG Biotech, Ebersberg, Germany).

hSirt4 [2] = biological target: T1, hSirt4; test: Coupled continuous enzymatic assay monitoring NAM release from NAD+ (Sirt4 deacylation); type: biochemical; conditions: hSirt4 wild-type
Description: The seven mammalian sirtuins vary in their sequence and acyl preferences[16],[19]. […] We therefore asked whether other acyl modifications would yield deacylation efficiencies expected for a physiologically dominant Sirt4 activity.
as §1

sirtuins = conditions: cited from earlier work
Description: All sirtuins share NAD^+ as an essential cosubstrate, but the Sirt4 nucleotide binding site differs from those of other isoforms. The Sirt4-loop tightens the entry of the C-site, where the conserved Asp145 recognizes the NAM moiety of NAD^+ [25], and its tip around Pro200 will have to rearrange slightly to allow productive NAD^+ binding (Supplementary Fig. 3c), consistent with a switch function.

xSirt4 = test: Thermal denaturation shift assay; type: binding, Xenopus tropicalis; conditions: 3 µM xSirt4, SYPRO orange, 20 to 73 °C; n = 2
Description: Thermal shift assays were performed in 96-well PCR plates using 3 µM xSirt4 (32–315) or 3 µM zSirt4 (29–310) and SYPRO orange (Thermo Fisher, Waltham, MA, USA) covered with 15 µL mineral oil. Heating and fluorescence measurements were performed in a FluoDia T70 with 1 K steps from 20 to 73 °C (excitation: 465 nm, emission: 580 nm). The data were analyzed in GraFit (Erithacus Software Ltd, Horley, UK) by nonlinear fitting using a two state model.

xSirt4 Wild-type = test: Coupled continuous assay, xSirt4 wild-type; type: biochemical, Xenopus tropicalis; conditions: HMG-CPS1 peptide substrate, n = 2
Description: The coupled continuous assay was performed as reported. Briefly, assays in 20 mM sodium phosphate buffer pH 7.8 contained 5 µM hSirt4 or 3–5 µM xSirt4, 0.05 mg ml^−1 nicotinamidase, 2 U ml^–1 GDH, 3.3 mM a-ketoglutarate, 0.2 mM NADPH, 10% DMSO, and NAD^+ at 2 mM or as indicated, and substrate peptide at 500 µM or as indicated. Reactions were monitored in microplates at room temperature for 1 h through absorption measurements at 340 nm in a LAMBDAScan plate reader (MWG Biotech, Ebersberg, Germany).

IC50 (hSirt4 [1]) | IC50 (Sirt4) | K M (NAD+ titration) (hSirt4 [2]) | Compound | IC50 (other sirtuins; other sirtuin isoforms, read-out: IC 50 on other sirtuins) | Ki (other sirtuins; read-out: K i on other sirtuin isoforms) | K M (NAD+ titration) (xSirt4 Delta 198–203) | K M(NAD+) range reported for sirtuins (sirtuins) | Sirt4 stabilization in thermal denaturation shift experiments (xSirt4) | K M (NAD+ titration) (xSirt4 Wild-type)
126 ± 12 µM | 142 ± 54 µM |  | NC(=O)C1=CN([C@@H]2O[C@H](COP(=O)(O)OP(=O)(O)OC[C@H]3O[C@@H](n4cnc5c(N)ncnc54)[C@H](O)[C@@H]3O)[C@@H](O)[C@H]2O)C=CC1 [NADH] | 1300 to 27900 µM and ≥ 1300 µM | ≥ 700 µM |  |  |  | 
 |  | 62 ± 14 µM | NC(=O)c1ccc[n+]([C@@H]2O[C@H](COP(=O)([O-])OP(=O)(O)OC[C@H]3O[C@@H](n4cnc5c(N)ncnc54)[C@H](O)[C@@H]3O)[C@@H](O)[C@H]2O)c1 [NAD^+] |  |  | 66 ± 9 µM | 14 to 600 µM | significant Sirt4 stabilization | 70 ± 14 µM
